Data published in PMC10794144, “A novel antibiotic class targeting the lipopolysaccharide transporter” (Nature, 2024).

Tests used:
GSH adduct = type: in vitro ADME
A. baumannii = experiment: microbe, parasite or virus in culture; conditions: for RO7223280 MIC 80%: read at 80%; for RO7223280 MIC 100%: read at 100%
How it was run: (§1)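 MIC was taken as the lowest concentration without visible growth, or past which OD600 no longer fell. Testing followed CLSI M07 and M100 broth microdilution, using 0.5 McFarland-derived inocula in CAMHB (LB for A. baylyi isolates).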

E. coli ATCC 25922 = experiment: microbe, parasite or virus in culture; conditions: for RO7223280 MIC 100%: E. coli ATCC 25922, read at 100%
How it was run: as §1

[1] = A. baumannii ATCC 17978, Study LGC308175
[2] = A. baumannii ATCC 19606, Study LGC296813
[3] = A. baumannii ATCC 19606, Study LGC299544
[4] = A. baumannii ATCC 19606, Study LGC308175
[5] = A. baumannii ROB08701, Study LGC296813
[6] = A. baumannii ROB08701, Study LGC299544
[7] = A. baumannii ROB08701, Study LGC308175
[8] = A. baumannii ROB08702, Study LGC296813
[9] = A. baumannii ROB08702, Study LGC299544
[10] = A. baumannii ROB08702, Study LGC308175
[11] = A. baumannii ROB08703, Study LGC296813
[12] = A. baumannii ROB08703, Study LGC299544
[13] = A. baumannii ROB08703, Study LGC308175
[14] = A. baumannii ROB08704, Study LGC296813
[15] = A. baumannii ROB08704, Study LGC299544
[16] = A. baumannii ROB08704, Study LGC308175
[17] = A. baumannii ROB08705, Study LGC296813
[18] = A. baumannii ROB08705, Study LGC299544
[19] = A. baumannii ROB08705, Study LGC308175
[20] = A. baumannii ROB08706, Study LGC296813
[21] = A. baumannii ROB08706, Study LGC299544
[22] = A. baumannii ROB08706, Study LGC308175
[23] = A. baumannii ROB08707, Study LGC296813
[24] = A. baumannii ROB08707, Study LGC299544
[25] = A. baumannii ROB08707, Study LGC308175
[26] = A. baumannii ROB08708, Study LGC296813
[27] = A. baumannii ROB08708, Study LGC299544
[28] = A. baumannii ROB08708, Study LGC308175
[29] = A. baumannii ROB08709, Study LGC296813
[30] = A. baumannii ROB08709, Study LGC299544
[31] = A. baumannii ROB08709, Study LGC308175
[32] = A. baumannii ROB08710, Study LGC296813
[33] = A. baumannii ROB08710, Study LGC299544
[34] = A. baumannii ROB08710, Study LGC308175

CN1C(=O)[C@H](CCCCN)NC(=O)[C@H](CCCN)NCc2cccnc2Sc2cccc(-c3ccc(C(=O)O)cc3)c2CNC(=O)[C@@H]1Cc1c[nH]c2ccccc12 [zosurabalpin]
0.5 µg/mL: RO7223280 MIC 100% (A. baumannii; [6]) | RO7223280 MIC 100% (A. baumannii; [11]) | RO7223280 MIC 100% (A. baumannii; [12]) | RO7223280 MIC 80% (A. baumannii; [13]) | RO7223280 MIC 100% (A. baumannii; [13]) | RO7223280 MIC 100% (A. baumannii; [14]) | RO7223280 MIC 80% (A. baumannii; [16]) | RO7223280 MIC 100% (A. baumannii; [16]) | MIC (A. baumannii; Acinetobacter baumannii, ACC01085 / AR0307, CAMHB, MCPs read at 80% inhibition) | MIC (A. baumannii; Acinetobacter baumannii, ROB08703, CAMHB, MCPs read at 80% inhibition) | MIC (A. baumannii; Acinetobacter baumannii, ROB08706, CAMHB, MCPs read at 80% inhibition)
≤ 0.06 µg/mL: MIC (A. baumannii; Acinetobacter baumannii, ATCC17978, ATCC 17978, CAMHB, MCPs read at 80% inhibition) | MIC (A. baumannii; Acinetobacter baumannii, ATCC17978, ATCC 17978, CAMHB, one replicate, MCPs read at 80% growth inhibition) | MIC (A. baumannii; Acinetobacter baumannii, ATCCBAA747, ATCC BAA-747, CAMHB, MCPs read at 80% inhibition) | MIC (A. baumannii; Acinetobacter baumannii, ROB08707, CAMHB, MCPs read at 80% inhibition) | MIC (A. baumannii; Acinetobacter baumannii, ROB08709, CAMHB, MCPs read at 80% inhibition)
1 µg/mL: RO7223280 MIC 100% (A. baumannii; [15]) | RO7223280 MIC 80% (A. baumannii; [20]) | RO7223280 MIC 100% (A. baumannii; [20]) | RO7223280 MIC 80% (A. baumannii; [21]) | MIC (A. baumannii; Acinetobacter baumannii, ACC01073, CAMHB, MCPs read at 80% inhibition)
Clean: GSH adduct (GSH adduct)
> 64 µg/mL: MIC (E. coli ATCC 25922; Escherichia coli, ATCC25922)
≤0.06 µg/mL: RO7223280 MIC 80% (A. baumannii; [1]) | RO7223280 MIC 80% (A. baumannii; [19])
>64 µg/mL: RO7223280 MIC 100% (A. baumannii; [9]) | RO7223280 MIC 100% (A. baumannii; [10]) | RO7223280 MIC 100% (A. baumannii; [21]) | RO7223280 MIC 100% (A. baumannii; [22]) | RO7223280 MIC 100% (A. baumannii; [27]) | RO7223280 MIC 100% (A. baumannii; [28]) | RO7223280 MIC 100% (A. baumannii; [30]) | RO7223280 MIC 100% (A. baumannii; [31]) | RO7223280 MIC 100% (A. baumannii; [32]) | RO7223280 MIC 100% (A. baumannii; [33]) | RO7223280 MIC 100% (A. baumannii; [34]) | RO7223280 MIC 100% (E. coli ATCC 25922; Study LGC296813) | RO7223280 MIC 100% (E. coli ATCC 25922; Study LGC299544) | RO7223280 MIC 100% (E. coli ATCC 25922; Study LGC308175)
2 µg/mL: RO7223280 MIC 80% (A. baumannii; [22])
0.25 µg/mL: RO7223280 MIC 80% (A. baumannii; [2]) | RO7223280 MIC 100% (A. baumannii; [2]) | RO7223280 MIC 80% (A. baumannii; [3]) | RO7223280 MIC 100% (A. baumannii; [3]) | RO7223280 MIC 80% (A. baumannii; [4]) | RO7223280 MIC 100% (A. baumannii; [4]) | RO7223280 MIC 80% (A. baumannii; [5]) | RO7223280 MIC 100% (A. baumannii; [5]) | RO7223280 MIC 80% (A. baumannii; [7]) | RO7223280 MIC 100% (A. baumannii; [7]) | RO7223280 MIC 80% (A. baumannii; [8]) | RO7223280 MIC 100% (A. baumannii; [8]) | RO7223280 MIC 80% (A. baumannii; [9]) | RO7223280 MIC 80% (A. baumannii; [10]) | RO7223280 MIC 80% (A. baumannii; [11]) | RO7223280 MIC 80% (A. baumannii; [12]) | RO7223280 MIC 80% (A. baumannii; [14]) | RO7223280 MIC 80% (A. baumannii; [15]) | RO7223280 MIC 80% (A. baumannii; [17]) | RO7223280 MIC 100% (A. baumannii; [17]) | RO7223280 MIC 80% (A. baumannii; [23]) | RO7223280 MIC 100% (A. baumannii; [23]) | RO7223280 MIC 80% (A. baumannii; [26]) | RO7223280 MIC 100% (A. baumannii; [26]) | RO7223280 MIC 80% (A. baumannii; [29]) | RO7223280 MIC 100% (A. baumannii; [29]) | RO7223280 MIC 80% (A. baumannii; [30]) | RO7223280 MIC 80% (A. baumannii; [31]) | RO7223280 MIC 80% (A. baumannii; [32]) | RO7223280 MIC 80% (A. baumannii; [33]) | RO7223280 MIC 80% (A. baumannii; [34]) | MIC90 (A. baumannii; Acinetobacter baumannii, 10 MDR isolates, CAMHB, MCPs read at 80% growth inhibition) | MIC (A. baumannii; Acinetobacter baumannii, ATCC19606, ATCC 19606, CAMHB, MCPs read at 80% growth inhibition) | MIC (A. baumannii; Acinetobacter baumannii, ROB08701, CAMHB, MCPs read at 80% inhibition) | MIC (A. baumannii; Acinetobacter baumannii, ROB08704, CAMHB, MCPs read at 80% inhibition) | MIC (A. baumannii; Acinetobacter baumannii, ROB08705, CAMHB, MCPs read at 80% inhibition)
0.12 µg/mL: RO7223280 MIC 100% (A. baumannii; [1]) | RO7223280 MIC 80% (A. baumannii; [6]) | RO7223280 MIC 80% (A. baumannii; [18]) | RO7223280 MIC 100% (A. baumannii; [18]) | RO7223280 MIC 100% (A. baumannii; [19]) | RO7223280 MIC 80% (A. baumannii; [24]) | RO7223280 MIC 100% (A. baumannii; [24]) | RO7223280 MIC 80% (A. baumannii; [25]) | RO7223280 MIC 100% (A. baumannii; [25]) | RO7223280 MIC 80% (A. baumannii; [27]) | RO7223280 MIC 80% (A. baumannii; [28]) | MIC (A. baumannii; Acinetobacter baumannii, ACC00445, CAMHB, MCPs read at 80% inhibition) | MIC (A. baumannii; Acinetobacter baumannii, ACC00535, CAMHB, MCPs read at 80% inhibition) | MIC (A. baumannii; Acinetobacter baumannii, ACC01077, CAMHB, MCPs read at 80% inhibition) | MIC (A. baumannii; Acinetobacter baumannii, ATCC19606, ATCC 19606, CAMHB, MCPs read at 80% inhibition) | MIC (A. baumannii; Acinetobacter baumannii, ROB08702, CAMHB, MCPs read at 80% inhibition) | MIC (A. baumannii; Acinetobacter baumannii, ROB08708, CAMHB, MCPs read at 80% inhibition) | MIC (A. baumannii; Acinetobacter baumannii, ROB08710, CAMHB, MCPs read at 80% inhibition)
0.12 to 1 µg/mL: MIC range (A. baumannii; 10 MDR isolates, CAMHB, MCPs read at 80% growth inhibition)
